Experimental data taken from US6710168B1, “Glycopeptide antibiotics, combinatorial libraries of glycopeptide antibiotics and methods of producing same” (The Trustees of the University of Princeton, priority 1999, dated 2004).
Converted amounts (≈) assume the structure as drawn.

Experiments:
Type in all cases: cell-based
[1] = system: Enterococcus faecium CL5137, VanA; assay: MIC susceptibility test; conditions: Enterococcus faecium CL5137, VanA; for MIC: read-out: MIC CL5137
[2] = system: gentamicin, streptmycin, vancomycin resistant Enterococcus faecalis (ATCC 51299); assay: microbe, parasite or virus in culture; conditions: for MIC VREF: Enterococcus faecalis ATCC51299, vancomycin resistance; for MIC: Enterococcus faecalis, ATCC51299, read-out: MIC VREF
Protocol: (§1) Evaluation of vancomycin analogs is performed using in vitro susceptibility tests and a time-kill assay. [NCCL Standard, 1993] In susceptibility tests, five strains of bacteria, two of the most important: Staphylococcus aureus and Enterococcus faecalis (both susceptible and resistant strains), and Bacillus cereus are chosen and bacteria viability remaining in each well is evaluated using a colorimetric assay based on the tetrazolium salt 3-(4,5-dimethyl-2-thiazolyl)-2,5-diphenyl-2H tetrazolium bromide (MTT) and minimum inhibitory concentration (MIC) values are determined as μg/mL. [Mosmann, T. (1983); Damour, O., et al. (1992); Mikami, Y., et al. (1994)] This assay gives susceptibility information quickly, efficiently, and clearly.
(§2) All strains [Bacillus cereus (ATCC® 11778), Staphylococcus aureus (ATCC® 29213), Methicillin resistant Staphylococcus aureus (ATCC® 33591), Enterococcus faecalis (ATCC® 29212), and gentamicin, streptmycin, vancomycin resistant Enterococcus faecalis (ATCC® 51299), are purchased from REMEL (Lenexa, Kans.).
(§3) MICs are determined by the microdilution method using 96-well microplates. Samples are suspended with Cation Adjusted (20 to 25 mg of Ca^2+/mL and 10 to […] of Mg^2+) Mueller-Hinton broth (Difco Laboratories, Detroit, Mich.) and are two-fold diluted from 5 μg/mL to […] on microplates (12 step dilution). To each well, which contained 100 μL of cell suspension (10^6 CFU/mL), 100 μL of antibiotic solution is added and the plates are incubated at 37° C. for 24 h. 50 μL of MTT solution (1 mg/mL) is added to each well, then the plates are incubated under the same conditions (incubation time; 30 min for Bacillus cereus, Staphylococcus aureus, and Methicillin resistant Staphylococcus aureus; 2 hours for Enterococcus faecalis and Gentamicin, Streptmycin, Vancomycin Enterococcus faecalis). MTT is a yellow tetrazolium salt that is reduced by mitochondrial enzymes in viable cells to an insoluble blue formazan product. MIC values are evaluated by observing the lowest drug concentration to inhibit bacteria growth.

[3] = system: Methicillin resistant Staphylococcus aureus (ATCC 33591); assay: MIC susceptibility test, microdilution with MTT readout; conditions: Staphylococcus aureus ATCC3359, Methicillin resistance; for MIC: ATCC 3359 / ATCC 33591 / MRSA, read-out: MIC MRSA
Protocol: as §1, §2, §3

[4] = system: Enterococcus faecalis (ATCC 29212); assay: as above; conditions: Enterococcus faecalis ATCC29212; for MIC: read-out: MIC EF
Protocol: as §1, §2, §3

[5] = system: Staphylococcus aureus (ATCC 29213); assay: as above; conditions: Staphylococcus aureus ATCC29213; for MIC: read-out: MIC SA
Protocol: as §1, §2, §3

[6] = system: Bacillus cereus (ATCC 11778); assay: as above; conditions: for MIC BC: Bacillus ceres ATCC11778; for MIC: Bacillus cereus, ATCC11778, read-out: MIC BC
Protocol: as §1, §2, §3

[7] = system: Enterococcus faecalis CL5244, VanB; assay: MIC susceptibility test; conditions: Enterococcus faecalis CL5244, VanB; for MIC: read-out: MIC CL5244
Protocol: as §1, §3

| SMILES | MIC CL5137 [1] | MIC VREF [2] [µg/mL] | MIC MRSA [3] [µg/mL] | MIC EF [4] [µg/mL] | MIC SA [5] [µg/mL] | MIC BC [6] [µg/mL] | MIC CL5244 [7] [µg/mL] | MIC [1] [µg/mL] | MIC [2] [µg/mL] | MIC [3] [µg/mL] | MIC [4] [µg/mL] | MIC [5] [µg/mL] | MIC [6] [µg/mL] | MIC [7] [µg/mL] |
| --- | --- | --- | --- | --- | --- | --- | --- | --- | --- | --- | --- | --- | --- | --- |
| CNC(CC(C)C)C(=O)NC1C(=O)NC(CC(N)=O)C(=O)NC2C(=O)NC3C(=O)NC(C(=O)NC(C(=O)O)c4cc(O)cc(O)c4-c4cc3ccc4O)C(O)c3ccc(c(Cl)c3)Oc3cc2cc(c3OC2OC(CSc3ccccc3)C(O)C(O)C2OC2CC(C)(N)C(O)C(C)O2)Oc2ccc(cc2Cl)C1O (stereo not drawn) [LIV, Glucose-C6-thiophenyl Vancomycin] | 50< μg/mL | 2.5 (≈ 1.62 µM) | 0.63 (≈ 0.409 µM) | 1.3 (≈ 0.843 µM) | 1.0 (≈ 0.649 µM) | 1.3 (≈ 0.843 µM) | 13 (≈ 8.43 µM) | – | – | – | – | – | – | – |
| CN[C@@H](CC(C)C)C(=O)N[C@H]1C(=O)N[C@@H](CC(N)=O)C(=O)N[C@H]2C(=O)NC3C(=O)N[C@H](C(=O)N[C@@H](C(=O)O)c4cc(O)cc(O)c4-c4cc3ccc4O)[C@H](O)c3ccc(c(Cl)c3)Oc3cc2cc(c3OC2OC(CSc3ccc(Br)cc3)C(O)C(O)C2OC2CC(C)(N)C(O)C(C)O2)Oc2ccc(cc2Cl)[C@H]1O (stereo partly drawn) [LIX, Glucose-C6-1-thio-4-bromobenzene Vancomycin] | – | – | – | – | – | – | – | > 50 | 0.32 (≈ 0.197 µM) | 1 (≈ 0.617 µM) | 1 (≈ 0.617 µM) | 0.63 (≈ 0.389 µM) | 1.3 (≈ 0.802 µM) | 6.3 (≈ 3.89 µM) |
| CNC(CC(C)C)C(=O)NC1C(=O)NC(CC(N)=O)C(=O)NC2C(=O)NC3C(=O)NC(C(=O)NC(C(=O)O)c4cc(O)cc(O)c4-c4cc3ccc4O)C(O)c3ccc(c(Cl)c3)Oc3cc2cc(c3OC2OC(CSc3cccc(Cl)c3)C(O)C(O)C2OC2CC(C)(N)C(O)C(C)O2)Oc2ccc(cc2Cl)C1O (stereo not drawn) [LV, Glucose-C6-3-chlorothiophenyl Vancomycin] | 50< μg/mL | 0.63 (≈ 0.4 µM) | 0.32 (≈ 0.203 µM) | 0.63 (≈ 0.4 µM) | 0.48 (≈ 0.305 µM) | 0.63 (≈ 0.4 µM) | 3.2 (≈ 2.03 µM) | – | – | – | – | – | – | – |
| CNC(CC(C)C)C(=O)NC1C(=O)NC(CC(N)=O)C(=O)NC2C(=O)NC3C(=O)NC(C(=O)NC(C(=O)O)c4cc(O)cc(O)c4-c4cc3ccc4O)C(O)c3ccc(c(Cl)c3)Oc3cc2cc(c3OC2OC(CSc3nc(N)n[nH]3)C(O)C(O)C2OC2CC(C)(N)C(O)C(C)O2)Oc2ccc(cc2Cl)C1O (stereo not drawn) [LVI, Glucose-C6-3-amino-5-mercapto-1,2,4-triazole Vancomycin] | 50< μg/mL | 0.63 (≈ 0.407 µM) | 0.63 (≈ 0.407 µM) | 0.63 (≈ 0.407 µM) | 0.48 (≈ 0.31 µM) | 1.0 (≈ 0.646 µM) | 1.6 (≈ 1.03 µM) | – | – | – | – | – | – | – |
| CNC(CC(C)C)C(=O)NC1C(=O)NC(CC(N)=O)C(=O)NC2C(=O)NC3C(=O)NC(C(=O)NC(C(=O)O)c4cc(O)cc(O)c4-c4cc3ccc4O)C(O)c3ccc(c(Cl)c3)Oc3cc2cc(c3OC2OC(Cn3ccnc3)C(O)C(O)C2OC2CC(C)(N)C(O)C(C)O2)Oc2ccc(cc2Cl)C1O (stereo not drawn) [LVII, Glucose-C6-imidazole Vancomycin] | 50< μg/mL | 5.0 (≈ 3.33 µM) | 1.9 (≈ 1.27 µM) | 2.5 (≈ 1.67 µM) | 1.3 (≈ 0.867 µM) | 2.5 (≈ 1.67 µM) | 50 (≈ 33.3 µM) | – | – | – | – | – | – | – |
| CN[C@@H](CC(C)C)C(=O)N[C@H]1C(=O)N[C@@H](CC(N)=O)C(=O)N[C@H]2C(=O)NC3C(=O)N[C@H](C(=O)N[C@@H](C(=O)O)c4cc(O)cc(O)c4-c4cc3ccc4O)[C@H](O)c3ccc(c(Cl)c3)Oc3cc2cc(c3OC2OC(CSc3nnnn3C)C(O)C(O)C2OC2CC(C)(N)C(O)C(C)O2)Oc2ccc(cc2Cl)[C@H]1O (stereo partly drawn) [LVIII, Glucose-C6-5-thio-1-methyl-tetrazole Vancomycin] | – | – | – | – | – | – | – | > 50 | 5 (≈ 3.23 µM) | 2.5 (≈ 1.62 µM) | 2.5 (≈ 1.62 µM) | 1.9 (≈ 1.23 µM) | 1.3 (≈ 0.84 µM) | 50 (≈ 32.3 µM) |
| CN[C@@H](CC(C)C)C(=O)N[C@H]1C(=O)N[C@@H](CC(N)=O)C(=O)N[C@H]2C(=O)NC3C(=O)N[C@H](C(=O)N[C@@H](C(=O)O)c4cc(O)cc(O)c4-c4cc3ccc4O)[C@H](O)c3ccc(c(Cl)c3)Oc3cc2cc(c3OC2OC(CSc3nccc(N)n3)C(O)C(O)C2OC2CC(C)(N)C(O)C(C)O2)Oc2ccc(cc2Cl)[C@H]1O (stereo partly drawn) [LXI, Glucose-C6-2-thio-4-aminopyrimidine Vancomycin] | – | – | – | – | – | – | – | > 50 | 0.63 (≈ 0.404 µM) | 1.3 (≈ 0.834 µM) | 0.63 (≈ 0.404 µM) | 0.63 (≈ 0.404 µM) | 0.63 (≈ 0.404 µM) | 3.2 (≈ 2.05 µM) |
| CN[C@@H](CC(C)C)C(=O)N[C@H]1C(=O)N[C@@H](CC(N)=O)C(=O)N[C@H]2C(=O)NC3C(=O)N[C@H](C(=O)N[C@@H](C(=O)O)c4cc(O)cc(O)c4-c4cc3ccc4O)[C@H](O)c3ccc(c(Cl)c3)Oc3cc2cc(c3OC2OC(CSc3nc(N)cc(N)n3)C(O)C(O)C2OC2CC(C)(N)C(O)C(C)O2)Oc2ccc(cc2Cl)[C@H]1O (stereo partly drawn) [LXII, Glucose-C6-6-thio-2,4-diaminopyrimidine Vancomycin] | – | – | – | – | – | – | – | > 50 | 1.3 (≈ 0.826 µM) | 2.5 (≈ 1.59 µM) | 1.3 (≈ 0.826 µM) | 1.9 (≈ 1.21 µM) | 0.63 (≈ 0.4 µM) | 6.3 (≈ 4 µM) |
| CN[C@@H](CC(C)C)C(=O)N[C@H]1C(=O)N[C@@H](CC(N)=O)C(=O)N[C@H]2C(=O)NC3C(=O)N[C@H](C(=O)N[C@@H](C(=O)O)c4cc(O)cc(O)c4-c4cc3ccc4O)[C@H](O)c3ccc(c(Cl)c3)Oc3cc2cc(c3OC2OC(CSc3nc(N)cc(O)n3)C(O)C(O)C2OC2CC(C)(N)C(O)C(C)O2)Oc2ccc(cc2Cl)[C@H]1O (stereo partly drawn) [LXIII, Glucose-C6-2-thio-4-amino-6-hydroxypyrimidine Vancomycin] | – | – | – | – | – | – | – | > 50 | > 5 | > 5 | 2.5 (≈ 1.59 µM) | 5 (≈ 3.18 µM) | 5 (≈ 3.18 µM) | 6.3 (≈ 4 µM) |
| CN[C@@H](CC(C)C)C(=O)N[C@H]1C(=O)N[C@@H](CC(N)=O)C(=O)N[C@H]2C(=O)NC3C(=O)N[C@H](C(=O)N[C@@H](C(=O)O)c4cc(O)cc(O)c4-c4cc3ccc4O)[C@H](O)c3ccc(c(Cl)c3)Oc3cc2cc(c3OC2OC(CSc3nnc(C)c(O)n3)C(O)C(O)C2OC2CC(C)(N)C(O)C(C)O2)Oc2ccc(cc2Cl)[C@H]1O (stereo partly drawn) [LXIV, Glucose-C6-2-thio-6-azathymine Vancomycin] | – | – | – | – | – | – | – | > 500 | 0.16 (≈ 0.102 µM) | 0.32 (≈ 0.203 µM) | 0.12 (≈ 0.0762 µM) | 0.24 (≈ 0.152 µM) | 0.08 (≈ 0.0508 µM) | 1.2 (≈ 0.762 µM) |
| C=C1N[C@@H]2C(=O)N[C@@H](C(=O)O)c3cc(O)cc(O)c3-c3cc(ccc3O)C1NC(=O)[C@@H]1NC(=O)[C@H](CC(N)=O)NC(=O)[C@H](NC(=O)[C@H](CC(C)C)NC)[C@H](O)c3ccc(c(Cl)c3)Oc3cc1cc(c3OC1OC(CSc3nc(-c4ccccc4)c(-c4ccccc4)o3)C(O)C(O)C1OC1CC(C)(N)C(O)C(C)O1)Oc1ccc(cc1Cl)[C@H]2O (stereo partly drawn) [LXIX, Glucose-C6-2-thio-4,5-diphenyloxazole Vancomycin] | – | – | – | – | – | – | – | 50 (≈ 29.7 µM) | 0.32 (≈ 0.19 µM) | 2.5 (≈ 1.49 µM) | 0.24 (≈ 0.143 µM) | 1.9 (≈ 1.13 µM) | 1.3 (≈ 0.773 µM) | 0.6 (≈ 0.357 µM) |
| CN[C@@H](CC(C)C)C(=O)N[C@H]1C(=O)N[C@@H](CC(N)=O)C(=O)N[C@H]2C(=O)NC3C(=O)N[C@H](C(=O)N[C@@H](C(=O)O)c4cc(O)cc(O)c4-c4cc3ccc4O)[C@H](O)c3ccc(c(Cl)c3)Oc3cc2cc(c3OC2OC(CSc3nc4cc(OC)ccc4[nH]3)C(O)C(O)C2OC2CC(C)(N)C(O)C(C)O2)Oc2ccc(cc2Cl)[C@H]1O (stereo partly drawn) [LXV, Glucose-C6-2-thio-5-methoxybenzimidazole Vancomycin] | – | – | – | – | – | – | – | > 50 | 2.5 (≈ 1.55 µM) | 2.5 (≈ 1.55 µM) | 0.63 (≈ 0.391 µM) | 1.9 (≈ 1.18 µM) | 0.63 (≈ 0.391 µM) | 13 (≈ 8.07 µM) |
